pEC50: −log10 of the molar value.
These molecules were tested on HCV genotype 1b replicon in Huh 7 cells (assay: HCV replicon assay (1b_Huh-Luc/Neo-ET cell line, luciferase readout)). Details: Hepatitis C virus, Huh-7; HCV 1b replicon; read-out: Inhibition of HCV genotype 1b.
Type: cell-based
Procedure, shortened: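 Huh 7 cells carrying a bicistronic genotype 1b luciferase replicon were treated with compound in triplicate the day after plating and incubated 72 h. Luciferase activity expressed as % of untreated control; EC50 from a four-parameter logistic fit, repeated several times.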
`COC(=O)N[C@H](C(=O)N1CCC[C@H]1c1nc2c([nH]1)-c1ccc(-c3ccc4cc(-c5cnc([C@@H]6CCCN6C(=O)[C@H](NC(=O)OC6CCOCC6)c6ccccc6)[nH]5)ccc4n3)cc1CCC2)C(C)C` [compound 540] gave a pEC50 greater than 9.00.
`COC(=O)N[C@H](C(=O)N1CCC[C@H]1c1nc2ccc(-c3ccc4cc(-c5cnc([C@@H]6CCCN6C(=O)[C@@H](NC(=O)OC)[C@@H](C)OC)[nH]5)ccc4c3)nc2[nH]1)C1CCCC1` [compound 533] gave a pEC50 greater than 9.00.
`COC(=O)N[C@@H](C(=O)N1CCC[C@H]1CNC(=O)c1cnc2cc(-c3ccc4c(ccc5nc([C@@H]6CCCN6C(=O)[C@H](NC(=O)OC)c6ccccc6)[nH]c54)c3)ccc2c1)c1ccccc1` [compound 551] gave a pEC50 greater than 9.00.
For `COC(=O)N[C@@H](C)C(=O)N1CCC[C@H]1c1ncc(-c2ccc3cc(-c4ccc(-c5cnc([C@@H]6CCCN6C(=O)[C@H](NC(=O)OC)c6cccs6)[nH]5)cc4)ccc3c2)[nH]1` [compound 502], the pEC50 was greater than 9.00.
`COC(=O)N[C@H](C(=O)N1CCC[C@H]1CNC(=O)c1ccc2cc(-c3ccc(-c4cnc([C@@H]5CCCN5C(=O)[C@@H](NC(=O)OC)C(C)C)[nH]4)cc3)ccc2c1)C(C)C` [compound 574] was tested, and the pEC50 was greater than 9.00.
`COC(=O)N[C@H](C(=O)N1CCC[C@H]1c1ncc(-c2ccc3cc(-c4ccc(-c5cnc([C@@H]6CCCN6C(=O)[C@H](NC(=O)OC)c6ccsc6)[nH]5)cc4)ccc3c2)[nH]1)C(C)C` [compound 466] was tested, and the pEC50 was greater than 9.00.
With `COC(=O)N[C@H](C(=O)N1CCC[C@H]1c1ncc(-c2ccc3cc(-c4ccc(-c5cnc([C@@H]6CCCN6C(=O)[C@H](NC(=O)OC)c6ccccc6)[nH]5)nn4)ccc3c2)[nH]1)[C@@H](C)OC` [compound 500] the pEC50 was greater than 9.00.

Same assay, conditions: Hepatitis C virus; Table 1; genotype 1b replicon, Huh 7 cells, 72 h, luciferase; read-out: Inhibition of HCV genotype 1b
`COC(=O)N[C@H](C(=O)N1CCC[C@H]1c1ncc(-c2ccc(-c3ccc4cc(-c5cnc([C@@H]6CCCN6C(=O)[C@@H](NC(=O)OC)C6CCOCC6)[nH]5)ccc4c3)c(F)c2)[nH]1)C1CCOCC1` [compound 141] showed a pEC50 greater than 9.00.
With `COC(=O)N[C@@H](C)C(=O)N1CCC[C@H]1c1nc(-c2ccc3nc(-c4ccc(-c5cnc([C@@H]6CCCN6C(=O)[C@@H](NC(=O)OC)C(C)C)[nH]5)cc4)ccc3c2)c[nH]1` [compound 41] the pEC50 was greater than 9.00.
Work on `COC(=O)N[C@H](C(=O)N1CCC[C@H]1c1nc2ccc(-c3ccc4cc(-c5ccc6nc([C@@H]7CCCN7C(=O)[C@@H](NC(=O)OC)C7CCOCC7)[nH]c6c5)ccc4c3)cc2[nH]1)C1CCOCC1` [compound 279] yielded a pEC50 greater than 9.00.
`COC(=O)N[C@H](C(=O)N1CCCC[C@H]1c1ncc(-c2ccc(-c3nc4ccc(-c5cnc([C@@H]6CCCCN6C(=O)[C@@H](NC(=O)OC)C(C)C)[nH]5)cc4s3)cc2)[nH]1)C(C)C` [compound 243] was tested, and the pEC50 was greater than 9.00.
Work on `[2H]C([2H])([2H])C([2H])(C([2H])([2H])[2H])[C@@]([2H])(NC(=O)OC)C(=O)N1CCC[C@H]1c1ncc(-c2ccc3nc(-c4ccc(-c5cnc([C@@H]6CCCN6C(=O)[C@@H](NC(=O)OC)C(C)C)[nH]5)cc4F)ccc3c2)[nH]1` [compound 157] yielded a pEC50 greater than 9.00.

Same assay, conditions: Hepatitis C virus; Table 2; genotype 1b replicon, Huh 7 cells, 72 h, luciferase; read-out: Inhibition of HCV genotype 1b
In the case of `COC(=O)N[C@H](C(=O)N1CCC[C@H]1c1ncc(-c2ccc3nc(-c4ccc5nc([C@@H]6CCCN6C(=O)[C@@H](NC(=O)OC)C6CCCC6)[nH]c5c4)ccc3c2)[nH]1)C1CCCC1` [compound 381], the pEC50 was greater than 9.00.
Work on `COC(=O)N[C@@H](C)C(=O)N1CCC[C@H]1c1ncc(-c2ccc3cc(-c4ccc(-c5cnc([C@@H]6CCCN6C(=O)[C@H](NC(=O)OC)c6ccccc6)[nH]5)cn4)ccc3c2)[nH]1` [compound 338] yielded a pEC50 greater than 9.00.
`COC(=O)N[C@H](C(=O)N1CCC[C@H]1c1ncc(-c2ccc3cc(-c4ccc5nc([C@@H]6CCCN6C(=O)[C@@H](NC(=O)OC)C6CCCC6)[nH]c5c4)ncc3c2)[nH]1)C1CCCC1` [compound 372] showed a pEC50 greater than 9.00.
`CC[C@@H](C)[C@H](NC(=O)OC)C(=O)N1CCC[C@H]1c1ncc(-c2ccc3cc(-c4cnc5nc([C@@H]6CCCN6C(=O)[C@@H](NC(=O)OC)[C@H](C)CC)[nH]c5c4)ccc3c2)[nH]1` [compound 405] showed a pEC50 greater than 9.00.

— patent US8877707B2, “Inhibitors of HCV NS5A” (Presidio Pharmaceuticals, Inc., priority 2010, dated 2014)
